Measurements published in ChEMBL document CHEMBL5724914, “Linking interpersonal differences in gut microbiota composition and drug biotransformation activity” (2024).

Columns and labels:
[1] = (§1) The drug is tested on Z-028 corresponding to mouse gut metagenome with ENA study accession number: PRJEB37062 and ENA sample accession number: ERS12561827 for biotransformation under anaerobic condition. The drug concentrations were measured over 9 timepoints collected between 0 and 24 hours of incubation by liquid-chromatography-coupled mass spectrometry (LC–MS); settings: 2 µM
[2] = as §1, with “Z-026” for “Z-028”, “to” for “to mouse gut”, “ERS12561825” for “ERS12561827”; settings: 2 µM
[3] = as §1, with “Z-023” for “Z-028”, “to” for “to mouse gut”, “ERS12561822” for “ERS12561827”; settings: 2 µM
[4] = as §1, with “Z-022” for “Z-028”, “ERS12561821” for “ERS12561827”; settings: 2 µM
[5] = as §1, with “Z-021” for “Z-028”, “to” for “to mouse gut”, “ERS12561820” for “ERS12561827”; settings: 2 µM
[6] = as §1, with “Z-016” for “Z-028”, “ERS12561815” for “ERS12561827”; settings: 2 µM
[7] = as §1, with “Z-013” for “Z-028”, “rabbit” for “mouse”, “ERS12561813” for “ERS12561827”; settings: 2 µM
[8] = as §1, with “Z-007” for “Z-028”, “rat” for “mouse”, “ERS12561807” for “ERS12561827”; settings: 2 µM
[9] = as §1, with “Z-001” for “Z-028”, “ERS12561801” for “ERS12561827”; settings: 2 µM
[10] = as §1, with “WLS-098” for “Z-028”, “human” for “mouse”, “ERS12561754” for “ERS12561827”; settings: 2 µM
[11] = as §1, with “WLS-007” for “Z-028”, “human” for “mouse”, “ERS12561742” for “ERS12561827”; settings: 2 µM
[12] = human gut metagenome, 24 h, 2 µM
[13] = human gut metagenome, 24 h, 2 µM; remark: listed apart in the source
[14] = human gut metagenome, 24 h, 2 µM; remark: listed apart in the source
[15] = human gut metagenome, 24 h, 2 µM; remark: listed apart in the source
[16] = human gut metagenome, 24 h, 2 µM; remark: listed apart in the source
[17] = human gut metagenome, 24 h, 2 µM; remark: listed apart in the source
[18] = human gut metagenome, 24 h, 2 µM; remark: listed apart in the source
[19] = human gut metagenome, 24 h, 2 µM; remark: listed apart in the source
[20] = human gut metagenome, 24 h, 2 µM; remark: listed apart in the source
Also: call rule not given here.

Compound	Bacterial Biotransformation [1]	Bacterial Biotransformation [2]	Bacterial Biotransformation [3]	Bacterial Biotransformation [4]	Bacterial Biotransformation [5]	Bacterial Biotransformation [6]	Bacterial Biotransformation [7]	Bacterial Biotransformation [8]	Bacterial Biotransformation [9]	Bacterial Biotransformation [10]	Bacterial Biotransformation [11]	Bacterial Biotransformation [12]	Bacterial Biotransformation [13]	Bacterial Biotransformation [14]	Bacterial Biotransformation [15]	Bacterial Biotransformation [16]	Bacterial Biotransformation [17]	Bacterial Biotransformation [18]	Bacterial Biotransformation [19]	Bacterial Biotransformation [20]
CCOC(=O)[C@H](CCc1ccccc1)N[C@@H](C)C(=O)N1[C@H](C(=O)O)C[C@H]2CCCC[C@@H]21 [TRANDOLAPRIL]	Compound NOT metabolized	Compound NOT metabolized	Compound metabolized	Compound NOT metabolized	Compound NOT metabolized	Compound NOT metabolized	Compound NOT metabolized	Compound NOT metabolized	Compound NOT metabolized	Compound metabolized	Compound metabolized	Compound NOT metabolized	Compound NOT metabolized	Compound NOT metabolized	Compound NOT metabolized	Compound NOT metabolized	Compound metabolized	Compound metabolized	Compound NOT metabolized	Compound metabolized
CC(CN(C)C)CN1c2ccccc2CCc2ccccc21.O=C(O)/C=C\C(=O)O (stereo not given) [TRIMIPRAMINE MALEATE]	Compound NOT metabolized	Compound metabolized	Compound metabolized	Compound NOT metabolized	Compound NOT metabolized	Compound NOT metabolized	Compound NOT metabolized	Compound NOT metabolized	Compound NOT metabolized	Compound metabolized	Compound metabolized	Compound NOT metabolized	Compound NOT metabolized	Compound NOT metabolized	Compound metabolized	Compound metabolized	Compound NOT metabolized	Compound metabolized	Compound metabolized	Compound NOT metabolized
CC(=O)CC(c1ccccc1)c1c(O)c2ccccc2oc1=O (stereo not given) [WARFARIN]	Compound metabolized	Compound NOT metabolized	Compound metabolized	Compound metabolized	Compound NOT metabolized	Compound metabolized	Compound metabolized	Compound NOT metabolized	Compound NOT metabolized	Compound metabolized	Compound metabolized	Compound metabolized	Compound metabolized	Compound metabolized	Compound metabolized	Compound metabolized	Compound metabolized	Compound metabolized	Compound metabolized	Compound metabolized
Cc1ccc(-c2nc3ccc(C)cn3c2CC(=O)N(C)C)cc1 [ZOLPIDEM]	Compound NOT metabolized	Compound NOT metabolized	Compound metabolized	Compound metabolized	Compound NOT metabolized	Compound NOT metabolized	Compound NOT metabolized	Compound NOT metabolized	Compound NOT metabolized	Compound metabolized	Compound NOT metabolized	Compound NOT metabolized	Compound NOT metabolized	Compound NOT metabolized	Compound metabolized	Compound metabolized	Compound NOT metabolized	Compound metabolized	Compound NOT metabolized	Compound metabolized
